Measured values reported in US7772177B2, “BIR domain binding compounds” (Aegera Therapeutics, Inc., priority 2005, dated 2010).

What was measured:
GST-HIAP1(cIAP-2) BIR 3 = biological target: T1, GST-HIAP1(cIAP-2) BIR 3 (Homo sapiens, UniProt Q13489); experiment: Fluorescence polarization-based competition assay, cIAP-2 Bir3; format: binding
T1 construct: made in house; host or cells: E. coli DH5-alpha
Method: GST-HIAP1(cIAP-2) BIR 3: HIAP1 coding sequence from amino acids 236-349, cloned into PGex4T3 via BamH1 and XhoI. The plasmid was transformed into E. coli DH5α for use in protein expression and purification.
(§1) A fluorescent peptide probe, Fmoc-Ala-Val-Pro-Phe-Tyr(t-Bu)-Leu-Pro-Gly(t-Bu)-Gly-OH was prepared using standard Fmoc chemistry on 2-chlorotrityl chloride resin (Int. J. Pept. Prot. Res. 38:555-561, 1991). Cleavage from the resin was performed using 20% acetic acid in dichloromethane (DCM), which left the side chain still blocked. The C-terminal protected carboxylic acid was coupled to 4′-(aminomethyl)fluorescein (Molecular Probes, A-1351; Eugene, Oreg.) using excess diisopropylcarbodiimide (DIC) in dimethylformamide (DMF) at room temperature and was purified by silica gel chromatography (10% methanol in DCM). The N-terminal Fmoc protecting group was removed using piperidine (20%) in DMF, and purified by silica gel chromatography (20% methanol in DCM, 0.5% HOAc). Finally, the t-butyl side chain protective groups were removed using 95% trifluoroacetic acid containing 2.5% water and 2.5% triisopropyl silane. […] Compound #174 was also used as a fluorescent probe in this assay.
(§2) For all assays, the fluorescence and fluorescence-polarization was evaluated using a Tecan Polarion instrument with the excitation filter set at 485 nm and the emission filter set at 535 nm. For each assay, the concentration of the target protein was first establish by titration of the selected protein in order to produce a linear dose-response signal when incubated alone in the presence of the fluorescent probe. Upon establishing these conditions, the compounds potency (IC50) and selectivity, was assessed in the presence of a fix defined-amount of target protein and fluorescent probe and a 10 point serial dilution of the selected compounds. For each IC50 curve, the assays were run as followed: 25 ul/well of diluted compound in 50 mM MES buffer pH 6.5 were added into a black 96 well plate then 25 ul/well of bovine serum albumin (BSA) at 0.5 mg/ml in 50 mM MES pH 6.5. Auto-fluorescence for each compound was first assessed by performing a reading of the compound/BSA solution alone. Then 25 ul of the fluorescein probe diluted into 50 mM MES containing 0.05 mg/ml BSA were added and a reading to detect quenching of fluorescein signal done. Finally 25 ul/well of the target or control protein (GST-BIRs) diluted at the appropriate concentration in 50 mM MES containing 0.05 mg/ml BSA were added and the fluorescence polarization evaluated.
(§3) For each assay the relative polarization-fluorescence units were plotted against the final concentrations of compound and the IC50 calculated using the Grad pad prism software and/or Cambridge soft. The ki value were derived from the calculated IC50 value as described above and according to the equation described in Nikolovska-Coleska, Z. (2004) Anal Biochem 332, 261-273.
(§4) Compounds exemplified in Table 6 were tested and found to have IC50s in the following ranges: A: >10 μM; B: <10 μM; C: <1 μM using the fluorescence polarization assay, as shown in Table 5. Each of the IC50s was calculated from Graph Pad.

GST-HIAP2 (cIAP-1) BIR 3 = biological target: T2, GST-HIAP2 (cIAP-1) BIR 3 (Homo sapiens, UniProt Q13490); experiment: Fluorescence polarization-based competition assay, cIAP-1 Bir3; format: binding
T2 construct: made in house; host or cells: E. coli DH5-alpha
Method: GST-HIAP2 (cIAP-1) BIR 3: HIAP2 coding sequence from amino acids 251-363 cloned into PGex4T3 via BamH1 and XhoI. The plasmid was transformed into E. coli DH5α for use in protein expression and purification.
as §1, §2, §3, §4

GST-XIAP BIR3RING = biological target: T3, GST-XIAP BIR3RING (Homo sapiens, UniProt P98170); experiment: Fluorescence polarization-based competition assay, XIAP Bir3-RING; format: binding
T3 construct: made in house; host or cells: E. coli DH5-alpha
Method: GST-XIAP BIR3RING: XIAP coding sequence amino acids 246-497 cloned into PGEX2T1 via BamH1 and AVA I. The plasmid was transformed into E. coli DH5α for use in protein expression and purification.
as §1, §2, §3, §4

[1] = biological target: T4, XIAP Bir3-RING (GST-BIR 3RING) (Homo sapiens, UniProt P98170); experiment: Caspase de-repression assay using cellular extracts (apoptosome), XIAP Bir3-RING; format: biochemical; details: 293 cell S100 extract
T4 construct: made in house; host or cells: E. coli DH5-alpha
Method: 100 ug of 293 cell S100 extract and 0.25 uM-2 uM of GST-Xiap fusion protein (GST-BIR 3RING, GST-linker BIR2 BIR3RING) were co-incubated with serial dilutions of compound (0.02 uM-40 uM). Extracts were activated by adding 1 mM dATP, 0.1 mM ALLN, 133 ug Cytochrome C (final concentrations), and incubating at 37° C. for 25 minutes. All reactions and dilutions used S100 buffer (50 mM Pipes pH 7.0, 50 mM KCl, 0.5 mM EGTA pH 8.0, 2 mM MgCl2 supplemented with 1/1000 dilutions of 2 mg/ml Cytochalisin B, 2, mg/ml Chymotstatin, Leupeptin, Pepstatin, Antipain, 0.1M PMSF, 1M DTT). Final reaction volume was 30 ul. Caspase-3 activity was measured by overlaying 30 ul of a 0.4 mM DEVD-AMC solution. AMC cleavage was measured in a TECAN spectrophotometer at 360 nm excitation and 444 nm emission, on a kinetic cycle of 1 hour with readings taken every 5 minutes. Caspase activity was calculated as Vo of AMC fluorescence/sec. Caspase de-repression by our compounds were compared to fully activated extract and activated extract repressed by the presence of XIAP fusion protein.
Results: Compounds were also tested in the apoptosome assay and the linker-BIR2/caspase-3 inhibition assay and found to have IC50s in the following ranges: A: >10 μM; B: <10 μM; C: <1 μM, as shown in Table 7.

T3 sequence (P98170 246-497): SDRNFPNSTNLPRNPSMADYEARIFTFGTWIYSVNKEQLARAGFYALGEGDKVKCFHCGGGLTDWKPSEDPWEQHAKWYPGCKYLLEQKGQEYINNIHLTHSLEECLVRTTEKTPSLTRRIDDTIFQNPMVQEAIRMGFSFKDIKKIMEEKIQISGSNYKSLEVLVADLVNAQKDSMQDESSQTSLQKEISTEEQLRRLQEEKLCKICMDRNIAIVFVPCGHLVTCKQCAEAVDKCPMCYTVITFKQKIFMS
T2 sequence (Q13490 251-363): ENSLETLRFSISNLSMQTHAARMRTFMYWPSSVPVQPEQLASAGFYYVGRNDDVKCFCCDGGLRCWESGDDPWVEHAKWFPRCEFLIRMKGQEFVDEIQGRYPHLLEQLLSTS
T1 sequence (Q13489 236-349): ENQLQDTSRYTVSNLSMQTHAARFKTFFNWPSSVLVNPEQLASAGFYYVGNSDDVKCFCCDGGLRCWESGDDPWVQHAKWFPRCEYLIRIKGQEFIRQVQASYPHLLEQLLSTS
T4 sequence (P98170 246-497): as the sequence (P98170 246-497) above

| SMILES | IC50 (GST-HIAP1(cIAP-2) BIR 3) [µM] | IC50 (GST-HIAP2 (cIAP-1) BIR 3) [µM] | IC50 (GST-XIAP BIR3RING) [µM] | IC50 [1] [µM] |
| --- | --- | --- | --- | --- |
| CN[C@@H](C)C(=O)N[C@H](C(=O)N1CCC[C@H]1CN(C[C@H](C)c1ccccc1)C(=O)OCc1ccccc1)C(C)(C)C [Compound 60] | < 10 | < 1 | < 1 | – |
| CC(C)[C@H](NC(=O)[C@H](C)N)C(=O)N1CCC[C@H]1CSCCc1ccccc1 [Compound 66] | < 10 | < 10 | < 10 | – |
| CN[C@@H](C)C(=O)N[C@H](C(=O)N1CCC[C@H]1CN(CCc1ccccc1)C(=O)CNC(C)=O)C(C)(C)C [Compound 43] | < 1 | < 1 | < 1 | – |
| CC[C@@H](N)C(=O)N(CCc1ccccc1)C[C@@H]1CCCN1C(=O)[C@@H](NC(=O)[C@H](C)NC)C(C)(C)C [Compound 46] | < 1 | < 1 | < 1 | – |
| CC(C)[C@H](NC(=O)[C@H](C)N)C(=O)N1CCC[C@H]1CS(=O)(=O)CCc1ccccc1 [Compound 67] | < 10 | < 10 | > 10 | – |
| CN[C@@H](C)C(=O)N[C@H](C(=O)N1CCC[C@H]1CN(CCc1ccccc1)C(=O)[C@H]1CCCN1)C(C)(C)C [Compound 50] | < 1 | < 1 | < 1 | – |
| C[C@H](N)C(=O)N[C@H](C(=O)N1CCC[C@H]1COCc1ccccc1)C(C)(C)C [Compound 64] | < 10 | < 10 | < 10 | – |
| C#CCOC[C@H](NC(=O)[C@@H](N)CO)C(=O)N1CCC[C@H]1CN(CCc1ccccc1)C(=O)C(F)(F)F [Compound 61] | < 1 | < 1 | < 1 | – |
| CN[C@@H](C)C(=O)N[C@H](C(=O)N1CCC[C@H]1CN(CCc1ccccc1)C(=O)[C@H](N)Cc1ccncc1)C(C)(C)C [Compound 56] | < 1 | < 1 | < 1 | – |
| CC(=O)N(CCCc1ccccc1)C[C@@H]1CCCN1C(=O)[C@@H](NC(=O)[C@H](C)N)C(C)C [Compound 11] | < 10 | < 10 | < 10 | < 1 |
| CC(C)[C@H](NC(=O)[C@H](C)N)C(=O)N1CCC[C@H]1COCc1ccccc1 [Compound 63] | > 10 | < 10 | < 10 | – |
| CN[C@@H](C)C(=O)N[C@H](C(=O)N1CCC[C@H]1CN(CCc1ccccc1)S(=O)(=O)c1ccccc1)C(C)(C)C [Compound 69] | < 1 | < 1 | < 1 | – |
| CN[C@@H](C)C(=O)N[C@H](C(=O)N1CCC[C@H]1CN(CCc1ccccc1)C(=O)[C@@H]1CCCN1)C(C)(C)C [Compound 51] | < 1 | < 1 | < 1 | – |
| CN[C@@H](C)C(=O)N[C@H](C(=O)N1CCC[C@H]1CN(CCc1ccccc1)C(=O)CN(C)C)C(C)(C)C [Compound 38] | < 1 | < 1 | < 1 | – |
| CN[C@@H](C)C(=O)N[C@H](C(=O)N1CCC[C@H]1CN(CCc1ccccc1)C(=O)CNc1ccccc1)C(C)(C)C [Compound 40] | < 1 | < 1 | < 1 | – |
| CN[C@@H](C)C(=O)N[C@H](C(=O)N1CCC[C@H]1CN(CCc1ccccc1)C(=O)[C@H](C)N)C(C)(C)C [Compound 37] | < 1 | < 1 | < 1 | – |
| CN[C@@H](C)C(=O)N[C@H](C(=O)N1CCC[C@H]1CN(C[C@@H](C)c1ccccc1)C(=O)OCc1ccccc1)C(C)(C)C [Compound 59] | < 1 | < 1 | < 1 | – |
| CN[C@@H](C)C(=O)N[C@H](C(=O)N1CCC[C@H]1CN(CCc1ccccc1)C(=O)[C@H](N)CCc1ccccc1)C(C)(C)C [Compound 58] | < 1 | < 1 | < 10 | – |
| CN[C@@H](C)C(=O)N[C@H](C(=O)N1CCC[C@H]1CN(CCc1ccccc1)C(=O)c1ccccc1)C(C)(C)C [Compound 47] | < 1 | < 1 | < 1 | – |
| CN[C@@H](C)C(=O)N[C@H](C(=O)N1CCC[C@H]1CN(CCc1ccccc1)C(=O)[C@@H](C)N)C(C)(C)C [Compound 36] | < 1 | < 1 | < 10 | – |
| CN[C@@H](C)C(=O)N[C@H](C(=O)N1CCC[C@H]1CN(CCc1ccccc1)C(=O)[C@H](N)Cc1ccc(OC)cc1)C(C)(C)C [Compound 54] | < 1 | < 1 | < 1 | – |
| CN[C@@H](C)C(=O)N[C@H](C(=O)N1CCC[C@H]1CN(CCc1ccccc1)S(=O)(=O)Cc1ccccc1)C(C)(C)C [Compound 68] | < 1 | < 1 | < 1 | – |
| CC[C@H](N)C(=O)N(CCc1ccccc1)C[C@@H]1CCCN1C(=O)[C@@H](NC(=O)[C@H](C)NC)C(C)(C)C [Compound 39] | < 1 | < 1 | < 1 | – |
| CN[C@@H](C)C(=O)N[C@H](C(=O)N1CCC[C@H]1CN(CCc1ccccc1)C(=O)Cc1ccccc1)C(C)(C)C [Compound 57] | < 1 | < 1 | < 1 | – |
| CC(C)[C@H](NC(=O)[C@H](C)N)C(=O)N1CCC[C@H]1CN(CCCCOC(=O)c1ccccc1)CCc1ccccc1 [Compound 65] | < 1 | < 1 | < 1 | – |
| CN[C@@H](C)C(=O)N[C@H](C(=O)N1CCC[C@H]1CN(CCc1ccccc1)C(=O)CCCN)C(C)(C)C [Compound 41] | < 1 | < 1 | < 10 | – |
| CN[C@@H](C)C(=O)N[C@H](C(=O)N1CCC[C@H]1CN(CCc1ccccc1)C(=O)[C@H](N)Cc1cccnc1)C(C)(C)C [Compound 55] | < 1 | < 1 | < 1 | – |
| CN[C@@H](C)C(=O)N[C@@H](CCCN)C(=O)N1CCC[C@H]1CN(CCc1ccccc1)C(=O)CCc1ccccc1 [Compound 49] | < 1 | < 1 | < 1 | – |
